{"source": "patent US7939509B2", "about": "“Partial and full agonists of A1 adenosine receptors” (Gilead Sciences, Inc., priority 2002, dated 2011)", "key": {"normal rats": {"tested_on": "normal rats", "experiment": "Triglyceride production after Triton WR 1339 injection in rats", "assay_type": "in vivo, rat", "method": "FIG. 3 graphs the time-dependent increase of TG caused by Triton […] in the absence or presence of Compound A as described in Example 31. After a 4 hour fast, rats received either vehicle or Compound A (5 mg/kg) via SC injection. After 5 minutes, Triton (400 mg/kg) was given as a slow intravenous bolus. Data are presented as ±SEM of values from 7-8 animals. Slope of the lines (determined by linear regression analysis) was 5.6±0.1 and 3.8±0.2 for vehicle and Compound A groups, respectively. Data were analyzed using 2 way ANOVA followed by Bonferroni's post hoc test.\nThe anti-lipolytic effects of Compound A were studied in awake rats. Animals were fasted overnight before experimental use. On the day of the experiment, animals were put in metabolic cages and left undisturbed to acclimate to the environment for 1-2 hrs. An infusion set (21 G×¾″, 0.8×19 mm U.T.W., 3½″, 9 cm tubing, volume 0.15 ml) was connected to the arterial catheter for blood sampling. A 1% sodium citrate saline solution was used to flush the lines. A pre-treatment blood sample was obtained from each animal to determine baseline values for FFA and TG. Compound A was given via oral gavage, sc injection, iv injection, or iv infusion, as described, for each different series of experiments. Blood samples were collected into serum separator tubes (Becton Dickinson, Franklin Lakes, N.J.) at pre-determined times, Blood was allowed to clot, and then centrifuged at 8000 rpm for 4 min at 4° C. The serum was stored at −80° C. and was thawed at 4° C. for determinations of FFA and TG contents.\nCompound A was synthesized by the Department of Medicinal and Bio-Organic chemistry of CV Therapeutics, Inc. Sodium citrate and Triton WR1339 were purchased from Sigma (St. Louis, Mo.). […] Serum FFA and TGs were measured using commercial kits from Wako Chemicals, Richmond, Va. Glucose and Insulin were measured using commercial kits from Wako Chemicals USA (Richmond, Va.).\nTo further investigate the mechanism of the decrease in TG levels by Compound A, total TG production was measured in normal rats. […]"}, "awake rats": {"tested_on": "awake rats", "experiment": "Anti-lipolytic effect: serum free fatty acids (FFA) in overnight-fasted awake rats", "assay_type": "in vivo, rat", "method": "All experimental procedures were performed under a protocol approved by the Institutional Animal Care and Use Committee of CV Therapeutics, Inc., and in accordance with the recommendations set forth in the Guide for the Care and Use of Laboratory Animals published by the National Research Council. Male Sprague-Dawley rats (225-250 gm) with either one or two indwelling catheters (carotid and jugular) were purchased from Charles River Laboratories (Wilmington, Mass.). Animals were housed 1 per cage in a room maintained on a 12 h light/dark cycle (light on 06.00-18.00 h) under constant temperature (22-25° C.) and with ad libitum access to food and water. The anti-lipolytic effects of Compound A were studied in awake rats. Animals were fasted overnight before experimental use. On the day of the experiment, animals were put in metabolic cages and left undisturbed to acclimate to the environment for 1-2 hrs. An infusion set (21 G×¾″, 0.8×19 mm U.T.W., 3½″, 9 cm tubing, volume 0.15 ml) was connected to the arterial catheter for blood sampling. A 1% sodium citrate saline solution was used to flush the lines. A pre-treatment blood sample was obtained from each animal to determine baseline values for FFA and TG. Compound A was given via oral gavage, sc injection, iv injection, or iv infusion, as described, for each different series of experiments. Blood samples were collected into serum separator tubes (Becton Dickinson, Franklin Lakes, N.J.) at pre-determined times, Blood was allowed to clot, and then centrifuged at 8000 rpm for 4 min at 4° C. The serum was stored at −80° C. and was thawed at 4° C. for determinations of FFA and TG contents. […] Sodium citrate and Triton WR1339 were purchased from Sigma (St. Louis, Mo.). Nicotinic acid and PEG 400 were purchased from VWR (by EMD Chemicals). Triton WR 1339 was diluted in warm saline (˜37° C.) with frequent vortexing. […] Compound A was dissolved in PEG 400, and then diluted with distilled water to make a 20% PEG drug solution. Serum FFA and TGs were measured using commercial kits from Wako Chemicals, Richmond, Va. Glucose and Insulin were measured using commercial kits from Wako Chemicals USA (Richmond, Va.). All data are reported as mean±SEM. Statistical analysis of data from experiments with 2 treatment groups was performed using the unpaired Student's t-test. Two way analysis of variance followed by Bonferroni's test was used for multiple comparisons."}}}
{"smiles": "O[C@@H]1[C@H](O)[C@@H](CSc2ccccc2F)O[C@H]1n1cnc2c(N[C@@H]3CCC[C@H]3O)ncnc21", "note": "[Compound A, 2-{6-[((1R,2R)-2-hydroxycyclopentyl)amino]purin-9-yl}(4S,5S,2R,3R)-5-[(2-fluorophenylthio)methyl]oxolane-3,4-diol]", "values": [{"measurement": "increase in serum TG caused by Triton vs vehicle-treated animals", "setting": "normal rats; 180 minutes post-treatment, p<0.01", "result": "significantly less"}, {"measurement": "slope of the time-dependent TG increase caused by Triton (linear regression)", "setting": "normal rats; FIG. 3 legend: 5 mg/kg SC, Triton 400 mg/kg iv, 4 hour fast, vehicle 5.6±0.1", "result": "3.8±0.2"}, {"measurement": "TG accumulation, slope of the line (linear regression)", "setting": "normal rats; text: Triton 600 mg/kg, vehicle printed as 3.8±0.17, p<0.001", "result": "5.6 ± 0.12", "unit": "mg/dL/min"}, {"measurement": "maximal decrease in FFA levels", "setting": "awake rats; 1 mg/kg iv bolus", "result": "54±5", "unit": "%"}, {"measurement": "FFA level after treatment", "setting": "awake rats; 1 mg/kg iv bolus, from 0.79±0.04 mM, p<0.001", "result": "0.36 ± 0.05", "unit": "mM"}, {"measurement": "FFA level after first iv injection", "setting": "awake rats; 1 mg/kg iv, first of three repeated injections, baseline 0.88±0.02 mM", "result": "0.35 ± 0.04", "unit": "mM"}, {"measurement": "FFA level after second iv injection", "setting": "awake rats; 1 mg/kg iv, second of three repeated injections, baseline 0.88±0.02 mM", "result": "0.35 ± 0.03", "unit": "mM"}, {"measurement": "FFA level after third iv injection", "setting": "awake rats; 1 mg/kg iv, third of three repeated injections, baseline 0.88±0.02 mM", "result": "0.38 ± 0.03", "unit": "mM"}, {"measurement": "decrease in FFA below baseline", "setting": "awake rats; 2.5 mg/kg oral gavage", "result": 31, "unit": "%"}, {"measurement": "FFA level after treatment", "setting": "awake rats; 2.5 mg/kg oral gavage, from baseline 0.7±0.05 mM, p<0.05", "result": "0.5 ± 0.03", "unit": "mM"}, {"measurement": "decrease in FFA levels", "setting": "awake rats; 5 mg/kg oral gavage", "result": 47, "unit": "%"}, {"measurement": "FFA level after treatment", "setting": "awake rats; 5 mg/kg oral gavage, from 0.8±0.04 mM, p<0.01", "result": "0.4 ± 0.03", "unit": "mM"}, {"measurement": "decrease in FFA levels", "setting": "awake rats; 10 mg/kg oral gavage", "result": 57, "unit": "%"}, {"measurement": "FFA level after treatment", "setting": "awake rats; 10 mg/kg oral gavage, from 0.68±0.04 mM, p<0.001", "result": "0.29 ± 0.02", "unit": "mM"}, {"measurement": "duration of the effect to suppress lipolysis", "setting": "awake rats; 2.5, 5, 10 mg/kg oral gavage", "result": "dose-dependent"}, {"measurement": "lowering of FFA levels, dose dependence", "setting": "awake rats; 2.5, 5, 10 mg/kg oral gavage", "result": "dose-dependent manner"}, {"measurement": "rebound increase of FFA levels", "setting": "awake rats; after iv bolus", "result": "not observed"}, {"measurement": "acute tachyphylaxis of the FFA lowering effect", "setting": "awake rats; three repeated iv injections, 1 mg/kg", "result": "did not undergo acute tachyphylaxis"}]}
